Experimental data reported in ChEMBL document CHEMBL3769318, “The Rational Design of Selective Benzoxazepin Inhibitors of the α-Isoform of Phosphoinositide 3-Kinase Culminating in the Identification of (S)-2-((2-(1-Isopropyl-1H-1,2,4-triazol-5-yl)-5,6-dihydrobenzo[f]imidazo[1,2-d][1,4]oxazepin-9-yl)oxy)propanamide (GDC-0326)” (J Med Chem, 2016).

Experiments:
[1] = target: Phosphatidylinositol 4,5-bisphosphate 3-kinase catalytic subunit alpha isoform (Homo sapiens, UniProt P42336); assay: Inhibition of recombinant PI3K alpha (unknown origin) using PIP2 as substrate by fluorescence polarization assay; details: read-out: Ki(app)
[2] = Antiproliferative activity against human MCF7-neo/Her2 cells after 3 days by luminescence plate reader method; type: functional, cell-based; details: 72 h
[3] = Antiproliferative activity against human PC3 cells after 4 days by luminescence plate reader method; type: functional, cell-based; details: PC-3, 96 h
[4] = Clearance in Sprague-Dawley rat at 1 mg/kg, iv; type: ADME, organism-based; details: in vivo

Phosphatidylinositol 4,5-bisphosphate 3-kinase catalytic subunit alpha isoform, sequence (P42336 whole entry, canonical isoform): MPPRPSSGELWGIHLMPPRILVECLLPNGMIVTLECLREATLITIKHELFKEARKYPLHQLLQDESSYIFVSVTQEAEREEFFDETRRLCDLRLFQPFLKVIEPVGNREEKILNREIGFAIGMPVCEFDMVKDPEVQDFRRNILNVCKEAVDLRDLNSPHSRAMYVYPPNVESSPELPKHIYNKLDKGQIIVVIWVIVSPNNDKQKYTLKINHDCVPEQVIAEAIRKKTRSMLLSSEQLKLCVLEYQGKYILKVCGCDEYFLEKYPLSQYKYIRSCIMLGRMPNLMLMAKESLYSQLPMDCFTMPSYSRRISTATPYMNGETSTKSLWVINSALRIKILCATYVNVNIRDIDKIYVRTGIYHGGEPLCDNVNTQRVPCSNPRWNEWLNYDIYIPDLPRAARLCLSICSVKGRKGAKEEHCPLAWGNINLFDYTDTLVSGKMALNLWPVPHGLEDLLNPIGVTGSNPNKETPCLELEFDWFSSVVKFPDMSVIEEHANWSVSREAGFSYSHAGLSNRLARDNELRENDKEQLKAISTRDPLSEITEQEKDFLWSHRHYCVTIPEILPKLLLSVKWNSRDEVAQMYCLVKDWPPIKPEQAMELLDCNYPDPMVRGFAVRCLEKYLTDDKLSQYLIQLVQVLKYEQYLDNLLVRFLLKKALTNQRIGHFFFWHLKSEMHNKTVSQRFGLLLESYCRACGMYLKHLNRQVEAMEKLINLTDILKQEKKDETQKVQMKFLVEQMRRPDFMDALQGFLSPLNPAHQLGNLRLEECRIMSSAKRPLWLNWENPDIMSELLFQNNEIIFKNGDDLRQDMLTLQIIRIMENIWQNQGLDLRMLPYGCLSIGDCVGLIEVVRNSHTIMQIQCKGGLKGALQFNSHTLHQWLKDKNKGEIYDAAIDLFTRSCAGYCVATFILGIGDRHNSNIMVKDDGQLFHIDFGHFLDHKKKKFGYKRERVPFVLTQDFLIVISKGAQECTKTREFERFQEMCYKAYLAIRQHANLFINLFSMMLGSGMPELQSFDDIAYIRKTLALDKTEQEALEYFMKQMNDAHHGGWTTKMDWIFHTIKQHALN

Structure (SMILES)	Ki [1]	clearance [4]	EC50 [2]	EC50 [3]
CC(C)n1ncnc1-c1cn2c(n1)-c1ccc(N3CCCC[C@H]3C(N)=O)cc1OCC2	0.0003 µM		0.03 µM	0.87 µM
CC[C@H](Oc1ccc2c(c1)OCCn1cc(-c3ncnn3C(C)C)nc1-2)C(N)=O	0.0005 µM		0.2 µM	2.9 µM
CC(C)n1ncnc1-c1cn2c(n1)-c1cnc(N3CCCC3)cc1OCC2	0.0013 µM	125 mL/min/kg		
CC(C)n1ncnc1-c1cn2c(n1)-c1ccc(O[C@H](C)C(N)=O)cc1OCC2			1 µM	4.6 µM

The next lines start with results.

Ki [1]	clearance [4]	Structure (SMILES)	EC50 [2]	EC50 [3]
0.0012 µM		CC(C)n1ncnc1-c1cn2c(n1)-c1cnc(N)cc1OCC2		
0.0002 µM		CC(C)n1ncnc1-c1cn2c(n1)-c1cnc(N(C)CC(N)=O)cc1OCC2		
0.03 µM		CNC(=O)[C@@H]1CCCN1c1cc2c(cn1)-c1nc(-c3ncnn3C(C)C)cn1CCO2		
0.001 µM	62 mL/min/kg	CC(C)n1ncnc1-c1cn2c(n1)-c1cnc(O[C@@H](C)C(N)=O)cc1OCC2		
0.0032 µM		CC(C)n1ncnc1-c1cn2c(n1)-c1cnc(N3CCC[C@@H]3C(N)=O)cc1OCC2		
